Data published in ChEMBL document CHEMBL1641378, “Understanding DP receptor antagonism using a CoMSIA approach” (Bioorg Med Chem Lett, 2011).
pIC50: −log10 of the molar value.

Molecular target: T1, Prostaglandin D2 receptor (Homo sapiens, UniProt Q13258)
T1 sequence (Q13258 whole entry): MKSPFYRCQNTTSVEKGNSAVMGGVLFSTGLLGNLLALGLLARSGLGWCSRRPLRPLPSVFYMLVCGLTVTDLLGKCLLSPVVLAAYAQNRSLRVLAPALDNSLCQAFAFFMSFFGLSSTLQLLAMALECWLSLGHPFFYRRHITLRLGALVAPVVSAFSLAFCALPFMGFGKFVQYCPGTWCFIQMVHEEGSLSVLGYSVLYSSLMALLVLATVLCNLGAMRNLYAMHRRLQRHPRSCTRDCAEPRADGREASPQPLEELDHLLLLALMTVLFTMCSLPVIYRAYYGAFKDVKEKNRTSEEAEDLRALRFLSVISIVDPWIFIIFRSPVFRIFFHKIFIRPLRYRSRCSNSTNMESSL
Test: Antagonist activity at prostaglandin D2 receptor in human LS174T cells assessed as inhibition of PGD2-induced cAMP accumulation after 15 mins by scintillation proximity assay
Assay type: functional, cell-based

pIC50: 8.35
SMILES: COc1ccc(CCNc2cc(-c3ccc(F)c(/C=N/O)c3)nc(OC)n2)cc1
